Data taken from patent US20230192653A1, “Novel Therapeutic Methods” (GUANGZHOU MAXINOVEL PHARMACEUTICALS CO., LTD., priority 2020, published 2023).
Where “and” joins values, the source holds several entries; their conditions need not be identical. Equal values may be shown once. Entries after “also recorded” stand apart in the source; their conditions may differ.

How the values were obtained:
Assay type in all cases: in vivo, human
[1] = tested on: Pancreatic Cancers (patient tumor cells in mini-PDX capsules); experiment: Mini-PDX assay, pancreatic cancers; conditions: Compound 1 12 mg per kg oral once daily 7 days, effective = P ≤ 0.05, per patient sample
Protocol: (§1) A mini patient-derived xenograft (mini-PDX) is used to assess the sensitivity of different tumors to treatment with Compound 1 (MAX-40279). In this experiment, clinical tumor samples from patients are treated in the mini-PDX by oral administration of Compound 1, and FGFR1OP2 expression level in those samples is analyzed.
(§2) Tumor tissue acquisition is approved by the ethics committees of each participating hospital and agreed to by each patient via written informed consent and is carried out according to state and institutional regulations on experimental use of human tissues. The patient samples are corrected if tumors >500 mm^3 in size with a necrotic area <30% are used. […]
(§3) Thereafter, the implanted capsules are removed, and tumor cell proliferation is evaluated using the CellTiter Glo Luminescent Cell Viability Assay kit (G7571, Promega, Madison, Wis., US) as instructed by the manufacturer. Luminescence is measured in terms of relative luminance unit (RLU) using a spectrophotometer (SpectraMax M3, Molecular Devices, Sunnyvale, Calif., US). Tumor cell growth inhibition (TCGI) (%) is calculated using the formula: TCGI %=(1−[mean RLU of the treatment group on day 7-mean RLU on day 0]/[Mean RLU of vehicle group on day 7−Mean RLU on day 0])×100%, Each experiment is done in sextuplicate and mean values are reported. […]

[2] = tested on: Liver Cancers (patient tumor cells in mini-PDX capsules); experiment: Mini-PDX assay, liver cancers; conditions: Compound 1 12 mg per kg oral once daily 7 days, effective = P ≤ 0.05, per patient sample
Protocol: as §1, §2, §3

cancer patients = experiment: Clinical efficacy of Compound 1 in cancer patients; parameters: key to CT Observation: Stable Disease, or SD, signifies that there has been no significant decrease or increase in the size of target lesions (including tumors), based on the smallest sum lesion diameter (LD); Progressive Disease, or PD, signifies that there has been an increase of at least 20% in the sum of the LD of targeted lesions; conditions: for CT Observation: per patient
Protocol: Stable Disease, or SD, signifies that there has been no significant decrease or increase in the size of target lesions (including tumors), based on the smallest sum lesion diameter (LD). Progressive Disease, or PD, signifies that there has been an increase of at least 20% in the sum of the LD of targeted lesions.
Patients are treated with Compound 1, given orally at the indicated daily dose. […] Although patients were not selected for high expression of FGFR1OP2 and FGFR1, the clinical response appears related to the expression levels of FGFR1OP2 and FGFR1. Squamous tumors seem particularly susceptible, as both patients with squamous tumors are SDs. Two of the three patients with SD are in 100 mg/day group, one of whom has 20% tumor reduction observed at the second and the fourth cycle by CT examination and is still under treatment. Adverse events are mild, so further dose escalation above 120 mg/day can be considered.

[3] = tested on: Cholangiocarcinoma (patient tumor cells in mini-PDX capsules); experiment: Mini-PDX assay, cholangiocarcinoma; conditions: Compound 1 12 mg per kg oral once daily 7 days, effective = P ≤ 0.05, per patient sample
Protocol: as §1, §2, §3

[4] = tested on: Gastric Cancer (patient tumor cells in mini-PDX capsules); experiment: Mini-PDX assay, gastric cancer; conditions: Compound 1 12 mg per kg oral once daily 7 days, effective = P ≤ 0.05, per patient sample
Protocol: as §1, §2, §3

[5] = tested on: clinical tumor samples from patients; experiment: Mini-PDX assay, all tumor samples from patients
Protocol: FIG. 1 is the RLU (ATP Enzyme activity) of cells from mini-PDX vehicles. The cancer cells derived from patients were embedded in the mini-PDX vehicles and implanted in the mice for cultivating 7 days. The mice were treated with MAX-40279(12mpk, PO, BID) or not. After 7 days, cells in mini-PDX vehicles were collected and ATP Enzyme activity was used to represent the cell viability.
as §1, with “analyzed. […]” for “analyzed.”
as §3

COc1cc(F)ccc1-c1c(C)sc2cnc(Nc3cnn(C4CCNCC4)c3)nc12 [Compound 1]
Efficacy (P ≤ 0.05) [1]: Non-effective; also recorded: effective
Efficacy (P ≤ 0.05) [2]: Non-effective; also recorded: effective
CT Observation (cancer patients; 40 mg oral daily dose): SD
CT Observation (cancer patients; 70 mg oral daily dose): PD (Progressive Disease, or PD, signifies that there has been an increase of at least 20% in the sum of the LD of targeted lesions)
tumor reduction by CT examination (cancer patients; 100 mg oral daily dose, CRC, observed at second and fourth cycle): 20%
CT Observation (cancer patients; 100 mg oral daily dose): SD (2×) and PD (Progressive Disease, or PD, signifies that there has been an increase of at least 20% in the sum of the LD of targeted lesions)
Adverse events (cancer patients; patients, 40-100 mg oral daily dose): mild
stabilizes progression of the cancer (patients with SD) (cancer patients; seven patients, 40-100 mg oral daily dose): three of the seven patients
Efficacy (P ≤ 0.05) [3]: Non-effective; also recorded: effective
Efficacy (P ≤ 0.05) [4]: Non-effective; also recorded: effective
share of tumor samples from patients in which Compound 1 is effective ([5]; 30 tumor samples, mini-PDX, 13/30): 43%
Tumor cell growth inhibition (TCGI) ([5]; FIG. 1, initial screen of 4 samples, 7 days oral administration, compared to placebo): effective TCGI
